According to US20220356174A1, “PYRIDIN-2-ONE COMPOUNDS USEFUL AS SMARCA2 ANTAGONISTS” (Epizyme, Inc., priority 2018, published 2022):

Key:
[1] = biological target: T1, FL-SMARCA2 (full-length human SMARCA2 isoform 1) (Homo sapiens, UniProt P51531); test: SMARCA2 ATPase activity assay (ADP-Glo, chicken mononucleosome substrate); assay type: biochemical; details: ATPase assay, enzyme 5 nM, ATP 250 uM, chicken mononucleosome 10 nM, 30 min preincubation
T1 construct: FLAG tag (YKDDDDK) (C); made in house; host or cells: Sf21 insect cells (baculovirus, pFastBacI)
T1 sequence (P51531 with tags, fused parts or gaps): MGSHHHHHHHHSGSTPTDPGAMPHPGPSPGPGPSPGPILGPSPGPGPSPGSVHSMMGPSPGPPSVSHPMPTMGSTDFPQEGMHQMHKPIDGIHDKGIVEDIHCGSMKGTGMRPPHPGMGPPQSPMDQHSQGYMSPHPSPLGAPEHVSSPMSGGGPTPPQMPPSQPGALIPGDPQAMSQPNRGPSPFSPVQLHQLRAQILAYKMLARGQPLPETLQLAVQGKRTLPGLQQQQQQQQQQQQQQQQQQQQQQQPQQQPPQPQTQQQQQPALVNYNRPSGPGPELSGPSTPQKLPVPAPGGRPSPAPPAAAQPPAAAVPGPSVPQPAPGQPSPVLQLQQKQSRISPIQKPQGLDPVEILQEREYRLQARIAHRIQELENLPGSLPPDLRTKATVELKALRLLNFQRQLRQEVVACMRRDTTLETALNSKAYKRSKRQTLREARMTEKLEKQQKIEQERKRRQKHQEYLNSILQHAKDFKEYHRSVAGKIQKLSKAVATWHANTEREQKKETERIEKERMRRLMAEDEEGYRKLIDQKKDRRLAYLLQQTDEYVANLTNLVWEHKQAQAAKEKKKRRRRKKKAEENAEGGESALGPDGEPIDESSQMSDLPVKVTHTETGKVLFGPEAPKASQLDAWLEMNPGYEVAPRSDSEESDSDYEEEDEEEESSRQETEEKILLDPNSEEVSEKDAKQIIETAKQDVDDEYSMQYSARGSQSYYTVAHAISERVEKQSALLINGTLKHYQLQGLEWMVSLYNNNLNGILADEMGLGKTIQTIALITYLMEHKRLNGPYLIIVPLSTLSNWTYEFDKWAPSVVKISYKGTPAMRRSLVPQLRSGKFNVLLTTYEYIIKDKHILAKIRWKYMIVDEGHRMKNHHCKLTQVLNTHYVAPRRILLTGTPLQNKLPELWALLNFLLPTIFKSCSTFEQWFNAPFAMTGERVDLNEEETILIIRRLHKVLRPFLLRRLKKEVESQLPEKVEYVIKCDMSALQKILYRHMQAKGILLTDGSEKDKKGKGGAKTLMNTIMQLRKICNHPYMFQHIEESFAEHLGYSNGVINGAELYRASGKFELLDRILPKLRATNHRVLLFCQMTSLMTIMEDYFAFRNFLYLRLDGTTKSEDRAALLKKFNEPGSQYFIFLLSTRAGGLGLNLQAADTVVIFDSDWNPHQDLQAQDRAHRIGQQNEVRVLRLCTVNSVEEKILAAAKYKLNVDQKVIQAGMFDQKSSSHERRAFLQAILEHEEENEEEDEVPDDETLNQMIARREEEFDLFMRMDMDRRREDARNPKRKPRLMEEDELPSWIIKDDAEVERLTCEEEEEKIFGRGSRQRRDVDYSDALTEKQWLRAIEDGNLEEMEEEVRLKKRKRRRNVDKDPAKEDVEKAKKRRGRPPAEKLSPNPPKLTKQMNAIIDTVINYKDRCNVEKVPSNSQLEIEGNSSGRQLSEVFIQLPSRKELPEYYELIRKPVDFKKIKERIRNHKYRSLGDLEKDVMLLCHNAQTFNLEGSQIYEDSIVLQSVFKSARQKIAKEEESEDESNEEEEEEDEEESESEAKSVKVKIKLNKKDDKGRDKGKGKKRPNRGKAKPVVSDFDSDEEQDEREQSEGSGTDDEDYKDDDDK

FL-SMARCA4 = FL-SMARCA4 (Homo sapiens, UniProt P51532); test: SMARCA4 ATPase activity assay (ADP-Glo, chicken mononucleosome substrate); details: ATPase assay, enzyme 5 nM, ATP 250 uM, chicken mononucleosome 10 nM, 30 min preincubation
Chain of FL-SMARCA4 (P51532 whole entry): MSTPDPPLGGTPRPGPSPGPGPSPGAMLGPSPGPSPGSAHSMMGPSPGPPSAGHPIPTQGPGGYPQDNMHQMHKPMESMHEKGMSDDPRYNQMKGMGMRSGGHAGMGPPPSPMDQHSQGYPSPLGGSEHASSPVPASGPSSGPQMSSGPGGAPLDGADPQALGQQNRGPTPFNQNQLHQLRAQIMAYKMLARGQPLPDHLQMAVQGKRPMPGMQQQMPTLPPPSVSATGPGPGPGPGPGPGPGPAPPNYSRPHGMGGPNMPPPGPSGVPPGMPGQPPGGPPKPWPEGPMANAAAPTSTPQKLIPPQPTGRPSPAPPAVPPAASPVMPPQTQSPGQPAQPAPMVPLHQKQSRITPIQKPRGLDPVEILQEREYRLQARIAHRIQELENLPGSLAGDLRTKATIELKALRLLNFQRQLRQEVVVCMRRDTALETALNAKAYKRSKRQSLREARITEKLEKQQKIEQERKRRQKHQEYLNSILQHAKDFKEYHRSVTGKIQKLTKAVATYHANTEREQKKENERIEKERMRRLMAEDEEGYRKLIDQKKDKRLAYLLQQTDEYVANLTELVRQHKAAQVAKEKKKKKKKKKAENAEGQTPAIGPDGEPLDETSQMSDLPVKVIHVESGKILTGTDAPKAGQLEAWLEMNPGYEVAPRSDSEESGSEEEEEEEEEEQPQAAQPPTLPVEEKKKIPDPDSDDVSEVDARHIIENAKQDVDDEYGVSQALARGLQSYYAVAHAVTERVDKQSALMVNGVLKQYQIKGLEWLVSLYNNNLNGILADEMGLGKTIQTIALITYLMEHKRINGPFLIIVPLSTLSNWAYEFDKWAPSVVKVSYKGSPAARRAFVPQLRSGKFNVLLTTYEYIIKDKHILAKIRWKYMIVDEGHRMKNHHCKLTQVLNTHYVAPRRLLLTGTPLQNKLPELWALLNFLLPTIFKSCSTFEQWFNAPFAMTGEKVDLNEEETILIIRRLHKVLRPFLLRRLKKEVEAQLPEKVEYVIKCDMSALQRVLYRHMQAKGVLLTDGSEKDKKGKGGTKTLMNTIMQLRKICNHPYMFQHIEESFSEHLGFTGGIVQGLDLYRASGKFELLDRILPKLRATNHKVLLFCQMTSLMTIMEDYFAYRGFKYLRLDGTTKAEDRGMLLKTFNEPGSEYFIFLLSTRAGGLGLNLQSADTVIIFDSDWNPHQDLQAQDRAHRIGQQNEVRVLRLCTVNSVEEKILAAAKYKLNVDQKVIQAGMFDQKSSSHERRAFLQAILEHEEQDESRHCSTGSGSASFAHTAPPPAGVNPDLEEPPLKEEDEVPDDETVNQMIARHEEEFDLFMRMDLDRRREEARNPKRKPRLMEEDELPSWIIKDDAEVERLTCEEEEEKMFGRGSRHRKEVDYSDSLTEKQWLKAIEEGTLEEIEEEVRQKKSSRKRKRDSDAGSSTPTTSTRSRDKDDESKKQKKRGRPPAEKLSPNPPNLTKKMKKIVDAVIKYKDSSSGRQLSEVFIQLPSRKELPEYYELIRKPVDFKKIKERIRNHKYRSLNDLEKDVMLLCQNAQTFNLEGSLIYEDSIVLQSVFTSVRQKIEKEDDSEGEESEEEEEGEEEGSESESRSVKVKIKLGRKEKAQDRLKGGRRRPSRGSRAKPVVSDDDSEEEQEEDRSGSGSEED

| Structure (SMILES) | IC50 ([1]; Table 3c.1) | IC50 (FL-SMARCA4; FL-SMARCA4 IC>50, Table 3c.2) | IC50 ([1]; Table 3.1) | IC50 (FL-SMARCA4; FL-SMARCA4 IC50, Table 3.2) |
| --- | --- | --- | --- | --- |
| O=C(Nc1cc(F)c(=O)n(CC(F)F)c1)c1cc(C#Cc2cccc(CO)c2)c(Cl)s1 [Compound 138c] | 28.8 nM | 65.7 nM | – | – |
| CCn1cc(NC(=O)c2csc(Cl)n2)ccc1=O [Compound 147] | – | – | 17100 nM | > 50000 nM |
| CCn1cc(NC(=O)c2cc(Cl)c(Cl)s2)cc(N(C)C)c1=O [Compound 149] | – | – | > 50000 nM | > 50000 nM |
| Cn1c(C(=O)Nc2cc(F)c(=O)n(CCF)c2)cc(Cl)c1C#N [Compound 152] | – | – | 166 nM | 616 nM |
| O=C(Nc1cc(F)c(=O)n(CC(F)F)c1)c1cc(C2CC(c3ccncc3)C2)c(Cl)s1 (stereo not drawn) [Compound 152c] | 4690 nM | 37500 nM | – | – |
| Cn1c(C(=O)Nc2cc(F)c(=O)n(CCF)c2)cc(Cl)c1Cl [Compound 153] | – | – | 147 nM | 715 nM |
| O=C(Nc1ccc(=O)n(CCF)c1)c1cc(Cl)n[nH]1 [Compound 154] | – | – | 1930 nM | 8080 nM |
| O=C(Nc1cc(F)c(=O)n(CCF)c1)c1cc(Cl)n[nH]1 [Compound 155] | – | – | 163 nM | 529 nM |
| O=C(Nc1cc(Cl)c(=O)n(CCF)c1)c1cc(Cl)n[nH]1 [Compound 156] | – | – | 235 nM | 884 nM |
| O=C(Nc1ccc(=O)n(CCF)c1)c1cc(Cl)c(Cl)[nH]1 [Compound 157] | – | – | 1500 nM | 11100 nM |
| CCn1cc(NC(=O)c2cc(Cl)c(Cl)[nH]2)cc(Cl)c1=O [Compound 158] | – | – | 1850 nM | 13700 nM |
| O=C(Nc1cc(F)c(=O)n(CCF)c1)c1cc(Cl)c(Cl)[nH]1 [Compound 159] | – | – | 194 nM | 759 nM |
| Cn1c(C(=O)Nc2cc(F)c(=O)n(CC(F)(F)F)c2)cc(Cl)c1C#N [Compound 160] | – | – | 224 nM | 864 nM |
| CCn1cc(NC(=O)c2cc(Cl)c(C#N)n2C)cc(Cl)c1=O [Compound 161] | – | – | 553 nM | 4030 nM |
| Cn1c(C(=O)Nc2cc(Cl)c(=O)n(CCF)c2)cc(Cl)c1C#N [Compound 162] | – | – | 194 nM | 940 nM |
| Cn1c(C(=O)Nc2cc(Cl)c(=O)n(CC(F)(F)F)c2)cc(Cl)c1C#N [Compound 163] | – | – | 309 nM | 1170 nM |
| CCn1cc(NC(=O)c2cc(Cl)c(Cl)n2C)cc(F)c1=O [Compound 164] | – | – | 311 nM | 1340 nM |
| CCn1cc(NC(=O)c2cc(Cl)n[nH]2)cc(F)c1=O [Compound 165] | – | – | 343 nM | 1070 nM |
| O=C(Nc1ccc(=O)n(CC(F)(F)F)c1)c1cc(Cl)c(Cl)[nH]1 [Compound 166] | – | – | 2720 nM | 16600 nM |
| CCn1cc(NC(=O)c2cc(Cl)c(Cl)[nH]2)cc(F)c1=O [Compound 167] | – | – | 609 nM | 2860 nM |

| Structure (SMILES) | IC50 ([1]; Table 3c.1) | IC50 (FL-SMARCA4; FL-SMARCA4 IC>50, Table 3c.2) | IC50 ([1]; Table 3.1) | IC50 (FL-SMARCA4; FL-SMARCA4 IC50, Table 3.2) |
| --- | --- | --- | --- | --- |
| O=C(Nc1cc(F)c(=O)n(CC(F)(F)F)c1)c1cc(Cl)c(Cl)[nH]1 [Compound 169] | – | – | 375 nM | 1410 nM |
| CCn1cc(NC(=O)c2cc(OC)c(OC)s2)ccc1=O [Compound 171] | – | – | > 50000 nM | > 50000 nM |
| CCn1cc(NC(=O)c2cc(C#N)c(Cl)s2)cc(Cl)c1=O [Compound 172] | – | – | 238 nM | 1070 nM |
| CCn1cc(NC(=O)c2cc(Cl)c(C#N)n2C)cc(F)c1=O [Compound 174] | – | – | 388 nM | 1470 nM |
| CCn1cc(NC(=O)c2cc(C#N)[nH]n2)ccc1=O [Compound 175] | – | – | 2040 nM | 5600 nM |
| CNC(=O)c1cccc(N2CC(c3cc(C(=O)Nc4cc(F)c(=O)n(CC(F)F)c4)sc3Cl)C2)c1 [Compound 176c] | 9190 nM | 9190 nM | – | – |
| Cc1cc(NC(=O)c2cc(Cl)c(Cl)s2)cn(C)c1=O [Compound 177] | – | – | > 50000 nM | > 50000 nM |
| Cn1cc(NC(=O)c2cc(Cl)c(Cl)s2)cc(Cl)c1=O [Compound 178] | – | – | 30800 nM | 37700 nM |
| CCn1cc(NC(=O)c2cc(OC)c(O)s2)ccc1=O [Compound 179] | – | – | > 50000 nM | > 50000 nM |
| CCn1cc(NC(=O)c2cc(C#N)c(Cl)s2)cc(F)c1=O [Compound 180] | – | – | 84.6 nM | 383 nM |
| CCn1cc(NC(=O)c2cc(C#N)c(C#N)s2)ccc1=O [Compound 181] | – | – | 114 nM | 313 nM |
| CCn1cc(NC(=O)c2cnc(C#N)[nH]2)ccc1=O [Compound 183] | – | – | > 50000 nM | > 50000 nM |
| CCn1cc(NC(=O)c2csc(C(N)=O)n2)ccc1=O [Compound 184] | – | – | > 50000 nM | > 50000 nM |
| CCc1cc(NC(=O)c2cc(Cl)c(Cl)s2)cn(C)c1=O [Compound 185] | – | – | > 50000 nM | > 50000 nM |
| CCn1cc(NC(=O)c2cc(Cl)c(Cl)s2)cc(Cc2cnn(C)c2)c1=O [Compound 186] | – | – | 15600 nM | > 50000 nM |
| N#Cc1cc(C(=O)Nc2ccc(=O)n(CCF)c2)sc1Cl [Compound 187] | – | – | 158 nM | 616 nM |
| N#Cc1cc(NC(=O)c2cc(Cl)c(Cl)s2)cn(CCF)c1=O [Compound 193] | – | – | 1230 nM | 8930 nM |
| Cn1c(C(=O)Nc2cc(Cl)c(=O)n(CCF)c2)cnc1Cl [Compound 194] | – | – | 3120 nM | 21900 nM |
| Cn1c(C(=O)Nc2cc(Cl)c(=O)n(CC(F)(F)F)c2)cnc1Cl [Compound 195] | – | – | 7590 nM | 29800 nM |
| N#Cc1cc(C(=O)Nc2ccc(=O)n(CC(F)(F)F)c2)sc1Cl [Compound 197] | – | – | 281 nM | 831 nM |

| Structure (SMILES) | IC50 ([1]; Table 3c.1) | IC50 (FL-SMARCA4; FL-SMARCA4 IC>50, Table 3c.2) | IC50 ([1]; Table 3.1) | IC50 (FL-SMARCA4; FL-SMARCA4 IC50, Table 3.2) |
| --- | --- | --- | --- | --- |
| N#Cc1cc(C(=O)Nc2ccc(=O)n(CC(F)(F)F)c2)sc1C#N [Compound 198] | – | – | 107 nM | 283 nM |
| CCn1cc(NC(=O)c2csc(C#N)n2)ccc1=O [Compound 199] | – | – | > 50000 nM | > 50000 nM |
| COc1ccc(Cn2c(C(=O)Nc3ccc(=O)n(CCF)c3)cc(Cl)c2C#N)cc1 [Compound 200] | – | – | 48300 nM | 45300 nM |
| O=C(Nc1cc(F)c(=O)n(CCF)c1)c1csc(NC2CCCC2)n1 [Compound 201] | – | – | > 50000 nM | > 50000 nM |
| CCn1cc(NC(=O)c2csc(NC3CCCC3)n2)ccc1=O [Compound 202] | – | – | > 50000 nM | > 50000 nM |
| Cn1c(C(=O)Nc2cc(C#N)c(=O)n(CCF)c2)cc(Cl)c1C#N [Compound 204] | – | – | 1260 nM | 5780 nM |
| Cn1c(C(=O)Nc2cc(F)c(=O)n(CCF)c2)cnc1Cl [Compound 205] | – | – | 3490 nM | 22600 nM |
| CCn1cc(NC(=O)c2cnc(C#N)s2)ccc1=O [Compound 206] | – | – | 317 nM | 649 nM |
| N#Cc1cc(C(=O)Nc2cc(Cl)c(=O)n(CC(F)(F)F)c2)sc1Cl [Compound 208] | – | – | 123 nM | 632 nM |
| CCn1cc(NC(=O)c2csc(NC)n2)ccc1=O [Compound 209] | – | – | > 50000 nM | > 50000 nM |
| N#Cc1sc(C(=O)Nc2cc(C#N)c(=O)n(CCF)c2)cc1Cl [Compound 210] | – | – | 207 nM | 694 nM |
| N#Cc1cc(NC(=O)c2cc(Cl)c(Cl)[nH]2)cn(CC(F)(F)F)c1=O [Compound 211] | – | – | 2310 nM | 27500 nM |
| Cn1c(C(=O)Nc2cc(F)c(=O)n(CC(F)(F)F)c2)cnc1Cl [Compound 212] | – | – | 8520 nM | > 50000 nM |
| Cn1c(C(=O)Nc2cc(C#N)c(=O)n(CCF)c2)cnc1Cl [Compound 213] | – | – | 17900 nM | > 50000 nM |
| Cn1c(C(=O)Nc2cc(C#N)c(=O)n(CC(F)(F)F)c2)cnc1Cl [Compound 214] | – | – | 29900 nM | > 50000 nM |
| N#Cc1cc(C(=O)Nc2cc(Cl)c(=O)n(CCF)c2)sc1Cl [Compound 215] | – | – | 71 nM | 492 nM |
| CCn1cc(NC(=O)c2cnc(NC3CCCC3)s2)ccc1=O [Compound 216] | – | – | > 50000 nM | > 50000 nM |
| CCn1cc(NC(=O)c2cnc(NC(C)C)s2)ccc1=O [Compound 217] | – | – | > 50000 nM | > 50000 nM |
| CCn1cc(NC(=O)c2csc(NC(C)C)n2)ccc1=O [Compound 218] | – | – | > 50000 nM | > 50000 nM |
| O=C(Nc1cc(F)c(=O)n(CCF)c1)c1cnc(NC2CCCC2)s1 [Compound 219] | – | – | > 50000 nM | > 50000 nM |
